The values that follow come from patent publication US7288273B1, “Gallotannins and ellagitannins as regulators of cytokine release” (The Penn State Research Foundation, priority 2000, dated 2007).

The test relates to LPS induced TNF-α secretion from h-PBMC's. In words: Inhibition of LPS induced TNF-α secretion from h-PBMC's. It counts as cell-based, human. As to conditions: for TNF-α secreted in the presence of LPS and 17c-20c: compound 10 μg/mL added after 45 minutes, h-PBMC's 3rd subject; for TNF-α secreted in the presence of LPS and 17c-20c / TNF-α secreted in the presence of LPS and 19c / 20c / TNF-α secreted in the presence of LPS and 18c-20c: ± SD; for TNF-α secreted in the presence of LPS and 19c / 20c: 8 h incubation; for TNF-α secreted in the presence of LPS and 19c / 20c / TNF-α secreted in the presence of LPS and 18c-20c: 4th subject. The procedure: In the second study, the ability of compounds 17c-20c to inhibit LPS induced TNF-α production in h-PBMC's was investigated using four assays. The first experiment was a kinetics run in which the h-PBMC's were initially incubated with a fixed concentration of LPS (5 μg/mL) for 45 minutes. This incubation period was followed by addition of a fixed concentration (10 μg/mL) of compounds 17c-20c. The cells were harvested at varying intervals of time. […] The optimal time was determined by comparing the amount of TNF-α secreted by LPS alone to the amount of TNF-α secreted by LPS and substrate at each time point.
The second assay determined the minimum amount of substrate required for inhibition. LPS (10 μg/mL) was incubated with h-PBMC's for 45 minutes followed by addition of 17c-20c at varying concentrations. The cell culture supernatant was harvested after 8 hours. The inherent variability in using cells from different subjects, or in the day of assay, made it difficult to compare overall effectiveness of inhibitors. Therefore, to more easily identify the concentration at which maximum inhibition occurs for a given compound, the TNF-α secretion was normalized by calculating a percent of maximum secretion value (based on LPS alone) (FIG. 13). […] The optimal concentration for inhibition varied between substrates, but the general dose response trend was the same. Overall, the maximum inhibition was 45% for 18c and 20c, and 25% for 19c.
The third assay investigated the ability of 17c, 18c, and 20c to inhibit LPS induced TNF-α secretion using a smaller dosage of LPS (5 μg/mL) (FIG. 14). Again, the response was dose dependent. The maximum inhibition was 45% for 17c and 20c, and 35% for 18c.
In the fourth assay the varying concentrations of substrates 17c-20c and LPS were added at the same time to determine the effect of addition sequence on the inhibition of TNF-α secretion (FIG. 15). The addition time seemed to make a difference in the overall dose response trend. However, maximum inhibition was the same as when the compounds were added 45 minutes after LPS addition (about 40% for each compound).
Finally, in the last study, analogs 19c and 20c were again tested for inhibition LPS induced TNF-α secretion (FIG. 17). In this assay a smaller dose of LPS was used to determine if inhibition was greater when much lower doses of LPS were present. The substrates were added 45 minutes after LPS addition and the cells were harvested after 8 hours. It doesn't appear as though the substrates are better inhibitors when smaller amounts of LPS are used, again perhaps reflecting receptor saturation with LPS at this dosage.

The mark [1] stands for this setting: LPS 10 μg/mL, substrate added after 45 minutes, 8 hours.
The mark [2] stands for this setting: compound 0.6 μM added 45 minutes after LPS 1 μg/mL.
Setting [3] is: compound 0.6 μM added 45 minutes after LPS 10 μg/mL, 8 hours.
Setting [4] is: compound 2.9 μM added 45 minutes after LPS 10 μg/mL, 8 hours.
Setting [5] is: compound 5.9 μM added 45 minutes after LPS 10 μg/mL, 8 hours.
Setting [6] is: compound 11.7 μM added 45 minutes after LPS 10 μg/mL, 8 hours.
Where [7] appears, read: compound 23.5 μM added 45 minutes after LPS 10 μg/mL, 8 hours.

Turning to `O=C(CCCCCC(=O)OC1O[C@H](COC(=O)c2cc(O)c(O)c(O)c2)[C@@H](OC(=O)c2cc(O)c(O)c(O)c2)[C@H](OC(=O)c2cc(O)c(O)c(O)c2)[C@H]1OC(=O)c1cc(O)c(O)c(O)c1)OC1O[C@H](COC(=O)c2cc(O)c(O)c(O)c2)[C@@H](OC(=O)c2cc(O)c(O)c(O)c2)[C@H](OC(=O)c2cc(O)c(O)c(O)c2)[C@H]1OC(=O)c1cc(O)c(O)c(O)c1` (mixture of isomers) [Compound 20c, 1,1′-O-2,2′,3,3′,4,4′,6,6′-Tetrakis(3,4,5-trihyroxybenzoyl)-β,β′-D,D′-glucopyranosylpimelate], the “TNF-α secreted in the presence of LPS and 17c-20c” value runs as follows: (LPS 5 μg/mL, time 1 h) 243.6 ± 52.8 pg/mL; (LPS 5 μg/mL, time 4 h) 2370.1 ± 95.7 pg/mL; (LPS 5 μg/mL, time 8 h) 2889.8 ± 383.2 pg/mL; (LPS 5 μg/mL, time 12 h) 2313.2 ± 339.1 pg/mL; (LPS 5 μg/mL, time 16 h) 2628.4 ± 571.0 pg/mL; (LPS 5 μg/mL, time 24 h) 2356.4 ± 400.3 pg/mL. Further, the “maximum inhibition of LPS induced TNF-α secretion” value (from here on “maximum inhibition”) (LPS 5 μg/mL, 3rd subject) is listed as 45% and the “maximum inhibition” value under setting [1] is reported as 45%. The “TNF-α secreted in the presence of LPS and 19c / 20c” value came out at 109.1 ± 14.9 % max. response under setting [2]; 110.6 ± 1.3 % max. response (compound 1.8 μM added 45 minutes after LPS 1 μg/mL); 62.4 ± 10.2 % max. response (compound 3.5 μM added 45 minutes after LPS 1 μg/mL); 69.5 ± 27.9 % max. response (compound 5.9 μM added 45 minutes after LPS 1 μg/mL); 98.4 ± 12.1 % max. response (compound 11.8 μM added 45 minutes after LPS 1 μg/mL). The “TNF-α secreted in the presence of LPS and 18c-20c” value by setting is: under setting [3], 89.8 ± 9.2 % max. response; under setting [4], 65.6 ± 8.3 % max. response; under setting [5], 67.1 ± 8.9 % max. response; under setting [6], 63.3 ± 4.7 % max. response; under setting [7], 63.9 ± 13.9 % max. response.
Consider `O=C(OC[C@H]1O[C@@H](OC(=O)c2cccc(C(=O)O[C@@H]3O[C@H](COC(=O)c4cc(O)c(O)c(O)c4)[C@@H](OC(=O)c4cc(O)c(O)c(O)c4)[C@H](OC(=O)c4cc(O)c(O)c(O)c4)[C@H]3OC(=O)c3cc(O)c(O)c(O)c3)c2)[C@H](OC(=O)c2cc(O)c(O)c(O)c2)[C@@H](OC(=O)c2cc(O)c(O)c(O)c2)[C@@H]1OC(=O)c1cc(O)c(O)c(O)c1)c1cc(O)c(O)c(O)c1` [Compound 18c, 1,1′-O-2,2′,3,3′,4,4′,6,6′-Tetrakis(3,4,5-trihydroxybenzoyl)-β,β′-D-glucopyranosylisophthalate], for which the “TNF-α secreted in the presence of LPS and 17c-20c” value runs as follows: (LPS 5 μg/mL, time 1 h) 594.6 ± 93.2 pg/mL; (LPS 5 μg/mL, time 4 h) 1523.3 ± 472.8 pg/mL; (LPS 5 μg/mL, time 8 h) 2829.3 ± 52.6 pg/mL; (LPS 5 μg/mL, time 12 h) 2448.1 ± 43.6 pg/mL; (LPS 5 μg/mL, time 16 h) 3956.3 ± 524.5 pg/mL; (LPS 5 μg/mL, time 24 h) 2002.1 ± 95.1 pg/mL. Moreover, the “maximum inhibition” value runs as follows: (LPS 5 μg/mL, 3rd subject) 35%; under setting [1], 45%. The “TNF-α secreted in the presence of LPS and 18c-20c” value under setting [3] came out at 69.0 ± 4.9 % max. response; the “TNF-α secreted in the presence of LPS and 18c-20c” value under setting [4] stood at 71.9 ± 15.2 % max. response; the “TNF-α secreted in the presence of LPS and 18c-20c” value under setting [5] came to 59.5 ± 9.5 % max. response; the “TNF-α secreted in the presence of LPS and 18c-20c” value under setting [6] is listed as 54.4 ± 15.4 % max. response; the “TNF-α secreted in the presence of LPS and 18c-20c” value under setting [7] turned out to be 60.6 ± 9.9 % max. response.
For the compound `O=C(OC[C@H]1O[C@@H](OC(=O)c2ccc(-c3ccc(C(=O)O[C@@H]4O[C@H](COC(=O)c5cc(O)c(O)c(O)c5)[C@@H](OC(=O)c5cc(O)c(O)c(O)c5)[C@H](OC(=O)c5cc(O)c(O)c(O)c5)[C@H]4OC(=O)c4cc(O)c(O)c(O)c4)cc3)cc2)[C@H](OC(=O)c2cc(O)c(O)c(O)c2)[C@@H](OC(=O)c2cc(O)c(O)c(O)c2)[C@@H]1OC(=O)c1cc(O)c(O)c(O)c1)c1cc(O)c(O)c(O)c1` [Compound 19c, 1,1′-O-2.2′,3,3′,4,4′,6,6′-Tetrakis(3,4,5-trihyroxybenzoyl)-β,β′-D,D′-glucopyranosylbiphenyl-4.4′-diester], the “TNF-α secreted in the presence of LPS and 17c-20c” value was found to be 328.2 ± 61.5 pg/mL (LPS 5 μg/mL, time 1 h); 1880.0 ± 20.1 pg/mL (LPS 5 μg/mL, time 4 h); 1921.5 ± 399.8 pg/mL (LPS 5 μg/mL, time 8 h); 2229.3 ± 353.1 pg/mL (LPS 5 μg/mL, time 12 h); 2561.2 ± 718.8 pg/mL (LPS 5 μg/mL, time 16 h); 2146.9 ± 69.3 pg/mL (LPS 5 μg/mL, time 24 h). Besides, the “maximum inhibition” value under setting [1] turned out to be 25%. Further, the “TNF-α secreted in the presence of LPS and 19c / 20c” value by setting is: under setting [2], 85.1 ± 10.3 % max. response; (compound 1.7 μM added 45 minutes after LPS 1 μg/mL) 78.3 ± 9.1 % max. response; (compound 3.4 μM added 45 minutes after LPS 1 μg/mL) 81.8 ± 15.9 % max. response; (compound 5.6 μM added 45 minutes after LPS 1 μg/mL) 57.5 ± 14.1 % max. response; (compound 11.2 μM added 45 minutes after LPS 1 μg/mL) 57.4 ± 7.3 % max. response. Further, the “TNF-α secreted in the presence of LPS and 18c-20c” value reads like this: under setting [3], 114.3 ± 11.9 % max. response; (compound 2.8 μM added 45 minutes after LPS 10 μg/mL, 8 hours) 83.5 ± 26.1 % max. response; (compound 5.6 μM added 45 minutes after LPS 10 μg/mL, 8 hours) 79.4 ± 15.1 % max. response; (compound 11.2 μM added 45 minutes after LPS 10 μg/mL, 8 hours) 92.4 ± 21.4 % max. response; (compound 22.4 μM added 45 minutes after LPS 10 μg/mL, 8 hours) 73.0 ± 12.6 % max. response.
